The subject of assay [1] is rat snake TRPA1 (rsTRPA1). Conditions: ref Banzawa et al., 2014; McNamara et al., 2007; cited from earlier work.
The test system of assay [2] is mouse hindpaw. Briefly: Thermal. It counts as in vivo. The conditions noted are these: for Mechanical hypersensitivity in capsaicin-ablated animals: intrathecally capsaicin ablated mice, n = 6–8 mice/treatment; for Hypersensitivity to thermal and mechanical stimuli: wild-type mice, intraplantar injection.
Assay [3] has as its system mouse hindpaw. Conditions: for Acute nocifensive behavior in capsaicin-ablated animals: intrathecally capsaicin ablated mice.
In assay [4] the target is T1, hTRPA1 (Homo sapiens, UniProt O75762). Format: cell-based. Conditions: human TRPA1-transfected HEK cells, whole-cell; mean ± SEM; p < 0.05 unpaired two-tailed t-test.
The test system of assay [5] is mouse hindpaw. Briefly: Neurogenic inflammation: paw edema and Evan's Blue Dye extravasation. Format: in vivo. Conditions: intrathecally capsaicin ablated mice; AITC 0.75% v/v.
Assay [6] concerns the target T1, hTRPA1. Nature of the assay: Single-channel cell-attached and excised-patch recordings of TRPA1 in HEK cells. Format: cell-based. Conditions: for Effect on divalent over monovalent cation selectivity: excised patches, AITC 50 μM, n = 3–7 patches/condition; for Effect on divalent over monovalent cation selectivity / Duration of evoked channel openings / Average latency to first channel opening: WaTx 100 nM; for Duration of evoked channel openings / Average latency to first channel opening: inside-out patches, AITC 10 μM; for Duration of evoked channel openings: Vh = −40 mV, n = 6–8 patches/treatment; for Average latency to first channel opening: n = 13–14 patches/treatment.

The subject of assay [7] is cultured rat trigeminal neurons. Nature of the assay: CGRP release ELISA from cultured trigeminal neurons. Format: cell-based. Conditions: WaTx 10 μM.
Assay [8] has as its system trigeminal sensory neurons. Briefly: Ca2+ imaging of cultured mouse trigeminal sensory neurons. Format: cell-based.
Assay [9] concerns rat snake TRPA1 (rsTRPA1). Briefly: Whole-cell patch-clamp recordings of rat snake TRPA1 in transfected HEK cells. Format: cell-based, Texas rat snake (Elaphe obsoleta lindheimeri).
A further assay deals with rsTRPA1. It counts as binding, Texas rat snake (Elaphe obsoleta lindheimeri). Conditions: gain-of-function mutant A627P.
For the next assay, the system named is human TRPA1. Format: cell-based. Conditions: WaTx 1 μM, whole-cell, n = 3–9 cells/construct.
Assay [10] concerns the target T1, hTRPA1. Format: binding. The conditions noted are these: wild-type hTRPA1-transfected HEK293 membranes.
Assay [11] concerns the target human TRPA1, full-length wild type (human, UniProt O75762 1-1119). Nature of the assay: BLI. Background: Biolayer interferometry detects binding as a change in optical thickness at a sensor tip.

The source of these data is publication PMC6731142 (Cell, 2019).

Bridge positions count the residues as written; N and C are the ends. Ends that are not written are not given here. * marks the point of attachment. Biotin = O=C1N[C@H]2[C@H](CS[C@H]2CCCCC(=O)*)N1

For orientation: Kd means the equilibrium constant for the complex coming apart. As usually defined, the koff is the first-order rate constant of dissociation.

T1 sequence (O75762 whole entry): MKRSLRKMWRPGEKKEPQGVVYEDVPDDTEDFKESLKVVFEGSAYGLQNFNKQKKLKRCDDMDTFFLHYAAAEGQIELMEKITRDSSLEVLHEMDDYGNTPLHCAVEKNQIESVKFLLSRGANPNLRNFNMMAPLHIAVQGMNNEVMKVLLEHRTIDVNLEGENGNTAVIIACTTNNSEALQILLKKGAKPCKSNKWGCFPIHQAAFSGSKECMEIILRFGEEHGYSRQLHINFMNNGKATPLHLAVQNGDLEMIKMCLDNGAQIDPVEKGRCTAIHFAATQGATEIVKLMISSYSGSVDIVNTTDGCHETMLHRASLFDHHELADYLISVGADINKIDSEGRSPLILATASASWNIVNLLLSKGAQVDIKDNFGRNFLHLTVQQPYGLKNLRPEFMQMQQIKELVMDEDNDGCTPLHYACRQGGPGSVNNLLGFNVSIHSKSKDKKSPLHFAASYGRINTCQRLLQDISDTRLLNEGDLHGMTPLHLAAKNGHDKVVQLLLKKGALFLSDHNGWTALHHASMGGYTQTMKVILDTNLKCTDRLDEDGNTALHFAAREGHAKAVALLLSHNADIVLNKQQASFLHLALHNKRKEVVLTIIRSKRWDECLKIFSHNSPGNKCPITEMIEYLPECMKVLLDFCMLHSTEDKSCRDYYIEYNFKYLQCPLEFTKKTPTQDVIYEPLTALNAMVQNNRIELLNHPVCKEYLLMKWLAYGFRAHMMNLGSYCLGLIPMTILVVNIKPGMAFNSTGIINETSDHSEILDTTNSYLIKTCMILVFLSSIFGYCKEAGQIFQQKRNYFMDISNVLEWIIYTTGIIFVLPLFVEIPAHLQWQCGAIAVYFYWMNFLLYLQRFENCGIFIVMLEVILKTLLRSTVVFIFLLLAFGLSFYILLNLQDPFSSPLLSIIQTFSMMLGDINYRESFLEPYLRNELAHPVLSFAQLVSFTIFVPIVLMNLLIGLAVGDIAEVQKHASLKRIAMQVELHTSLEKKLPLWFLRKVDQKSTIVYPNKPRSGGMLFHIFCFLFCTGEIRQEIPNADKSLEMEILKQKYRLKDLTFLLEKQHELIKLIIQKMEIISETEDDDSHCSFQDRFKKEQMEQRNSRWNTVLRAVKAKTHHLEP
Chain of human TRPA1, full-length wild type (O75762 whole entry): as above

Turning to `CCC(=N\O)/C(C)=C/c1ccc(F)cc1` [A 967079], the “Inhibitor effectiveness against rsTRPA1” value in assay [1] was “ineffective”.
`C=CCN=C=S` [AITC, allyl isothiocyanate, reference compound]: in the assay on mouse hindpaw [2], the “Mechanical hypersensitivity in capsaicin-ablated animals” value is “developed mechanical hypersensitivity (albeit with a delayed onset)”; the “Hypersensitivity to thermal and mechanical stimuli” value was “substantial and long-lasting hypersensitivity”. The “Acute nocifensive behavior in capsaicin-ablated animals” value in the assay on mouse hindpaw [3] is listed as “not acute nocifensive behavior”. Further, the “τoff (reversal of membrane currents upon washout)” value at hTRPA1 [4] was determined as 27 ± 5 s. Further, the “Paw swelling in capsaicin-ablated animals” value in the assay with mouse hindpaw [5] is “produced swelling”. Further, at hTRPA1 [6], the “Effect on divalent over monovalent cation selectivity” value is “small but significant increase in divalent cation selectivity”, the “Duration of evoked channel openings” value is no more than 5 ms and the “Average latency to first channel opening” value is “dramatically shortened”. For the same molecule, the “CGRP release, physiological extracellular Ca2+” value in assay [7] (2mM extracellular Ca2+, AITC 100 μM, 5 min at RT) is given as “promoted robust CGRP release”.
Consider `CC(C)c1ccc(NC(=O)Cn2cnc3c2c(=O)n(C)c(=O)n3C)cc1` [HC 030031], for which the “Inhibitor effectiveness against rsTRPA1” value in assay [1] is recorded as “effective”.
For the molecule “WaTx (Biotin-GSGSASPQQAKYCYEQCNVNKVPFDQCYQMCSPLERS; disulfide 13-31, 17-27; not fully specified)”, the “Effect on neurons from TRPA1-deficient animals” value in assay [8] (WaTx 5 μM, TRPA1−/− mouse trigeminal neuron cultures) is “no effect”. In addition, the “Selectivity of neuron excitation, wild-type mice” value in assay [8] (saturating dose 5μM WaTx, AITC 50μM) was “excited only the cohort sensitive to a selective dose of AITC”. Besides, in the assay with mouse hindpaw [2], the “Mechanical hypersensitivity in capsaicin-ablated animals” value is “failed to exhibit any signs of mechanical hypersensitivity”; the “Hypersensitivity to thermal and mechanical stimuli” value is “substantial and long-lasting hypersensitivity”. Besides, the “Nocifensive (pain-related) behavior” value in the assay with mouse hindpaw [3] (20 μL intraplantar to hindpaw, wild-type mice, scored 20 min) is “vigorous, dose-dependent nocifensive (pain-related) behavior”. Further, the “Nocifensive and c-Fos responses in TRPA1-deficient mice” value with mouse hindpaw [3] (TRPA1−/− mice) is on record as “not observed”. In addition, the “c-Fos immunoreactivity in superficial laminae of spinal cord dorsal horn” value with mouse hindpaw [3] (after hindpaw injection, wild-type mice, n = 22–39 sections/group) was “induction of c-Fos immunoreactivity”. In addition, the “Acute nocifensive behavior in capsaicin-ablated animals” value in the assay with mouse hindpaw [3] was “lacked acute nocifensive behavior”. The “Toxin sensitivity of rsTRPA1 A627P” value in assay [9] (WaTx 5 μM, whole-cell) is recorded as “sufficient to confer toxin sensitivity”. Besides, the “Sensitivity of rat snake TRPA1 to toxin” value in assay [9] (whole-cell patch clamp, n = 4–12 HEK cells/condition) is on record as “insensitive”. Further, in the assay on rsTRPA1, the “Binding of rsTRPA1 A627P membranes” value is listed as “did display binding”. Moreover, the “τoff (reversal of membrane currents upon washout)” value with hTRPA1 [4] worked out at 4.6 ± 1.2 s. In addition, in the assay on human TRPA1, the “Toxin sensitivity of hTRPA1 mutants P622A, M634L, T646P” value is “abrogated toxin sensitivity”. Also, the “Activation of channels in cell-attached mode” value in the assay with hTRPA1 [6] (cell-attached HEK cell patches, n = 12) is listed as “WaTx-evoked responses in the on-cell patch configuration”. In the assay with hTRPA1 [6] (excised outside-out / inside-out patches, bath application), the “Activation of channels in excised patches” value is “activity was observed in either configuration”. In addition, in the assay with hTRPA1 [6], the “Effect on divalent over monovalent cation selectivity” value is on record as “largely abolished”; the “Duration of evoked channel openings” value was no more than 20 ms; the “Average latency to first channel opening” value is “indistinguishable from that of basal, spontaneous events”. The “CGRP release, raised extracellular Ca2+” value in assay [7] (20mM extracellular Ca2+ (10-fold)) is “able to promote CGRP release”. Further, the “Binding of hTRPA1 membranes” value with hTRPA1 [10] was “Robust binding”.

B1: Biotin-GSGS-WaTx (N-terminal biotinylated Wasabi Receptor Toxin) (peptide)
peptide: GSGSASPQQAKYCYEQCNVNKVPFDQCYQMCSPLERS
modifications: biotin on the N-terminus; directed disulfide bonds C9-C27 and C13-C23 (WaTx numbering)
For the molecule B1, in assay [11], the Kd worked out at 0.33 pM and the koff came out at 7.13e-06 s⁻¹.
